From ChEMBL document CHEMBL1158969, “Studies on the synthesis of sesquiterpene lactones, 12. Synthesis of (+)-colartin, (+)-arbusculin A, and their C-4 epimers and their biological activities” (1991)
The source made the active and inactive calls.

What was measured:
Format in all cases: functional, organism-based
[1] = system: Brassica juncea; test: Growth regulatory activity on Brassica juncea root assessed as inhibition of germination and seedling growth at 1000 ppm after 10 days
[2] = system: Cucumis sativus; test: Growth regulatory activity on Cucumis sativus root assessed as complete inhibition of germination and seedling growth at 1000 ppm after 10 days
[3] = system: Cucumis sativus; test: Growth regulatory activity on Cucumis sativus root assessed as inhibition of germination and seedling growth at 500 ppm after 10 days
[4] = system: Cucumis sativus; test: Growth regulatory activity on Cucumis sativus stem assessed as complete inhibition of germination and seedling growth at 1000 ppm after 10 days
[5] = system: Echinochloa frumentacea; test: Growth regulatory activity on Echinochloa frumentacea stem assessed as inhibition of germination and seedling growth at 500 ppm after 10 days
[6] = system: Echinochloa frumentacea; test: Growth regulatory activity on Echinochloa frumentacea stem assessed as inhibition of germination and seedling growth at 1000 ppm after 10 days
[7] = system: Echinochloa frumentacea; test: Growth regulatory activity on Echinochloa frumentacea root assessed as inhibition of germination and seedling growth at 1000 ppm after 10 days
[8] = system: Cucumis sativus; test: Growth regulatory activity on Cucumis sativus stem assessed as inhibition of germination and seedling growth at 500 ppm after 10 days
[9] = system: Brassica juncea; test: Growth regulatory activity on Brassica juncea root assessed as complete inhibition of germination and seedling growth at 1000 ppm after 10 days
[10] = system: Echinochloa frumentacea; test: Growth regulatory activity on Echinochloa frumentacea root assessed as complete inhibition of germination and seedling growth at 1000 ppm after 10 days
[11] = system: Echinochloa frumentacea; test: Growth regulatory activity on Echinochloa frumentacea root assessed as inhibition of germination and seedling growth at 500 ppm after 10 days
[12] = system: Cucumis sativus; test: Growth regulatory activity on Cucumis sativus root assessed as complete inhibition of germination and seedling growth at 500 ppm after 10 days
[13] = system: Cucumis sativus; test: Growth regulatory activity on Cucumis sativus root assessed as inhibition of germination and seedling growth at 250 ppm after 10 days
[14] = system: Cucumis sativus; test: Growth regulatory activity on Cucumis sativus stem assessed as inhibition of germination and seedling growth at 250 ppm after 10 days
[15] = system: Brassica juncea; test: Growth regulatory activity on Brassica juncea root assessed as inhibition of germination and seedling growth at 500 ppm after 10 days
[16] = system: Brassica juncea; test: Growth regulatory activity on Brassica juncea stem assessed as inhibition of germination and seedling growth at 1000 ppm after 10 days
[17] = system: Cucumis sativus; test: Growth regulatory activity on Cucumis sativus stem assessed as inhibition of germination and seedling growth at 1000 ppm after 10 days
[18] = system: Echinochloa frumentacea; test: Growth regulatory activity on Echinochloa frumentacea stem assessed as complete inhibition of germination and seedling growth at 1000 ppm after 10 days
[19] = system: Brassica juncea; test: Growth regulatory activity on Brassica juncea stem assessed as complete inhibition of germination and seedling growth at 1000 ppm after 10 days
[20] = system: Cucumis sativus; test: Growth regulatory activity on Cucumis sativus stem assessed as inhibition of germination and seedling growth at 100 ppm after 10 days
[21] = system: Brassica juncea; test: Growth regulatory activity on Brassica juncea root assessed as inhibition of germination and seedling growth at 250 ppm after 10 days
[22] = system: Cucumis sativus; test: Growth regulatory activity on Cucumis sativus stem assessed as complete inhibition of germination and seedling growth at 500 ppm after 10 days
[23] = system: Brassica juncea; test: Growth regulatory activity on Brassica juncea root assessed as complete inhibition of germination and seedling growth at 500 ppm after 10 days
[24] = system: Cucumis sativus; test: Growth regulatory activity on Cucumis sativus root assessed as inhibition of germination and seedling growth at 100 ppm after 10 days
[25] = system: Brassica juncea; test: Growth regulatory activity on Brassica juncea stem assessed as complete inhibition of germination and seedling growth at 500 ppm after 10 days
[26] = system: Brassica juncea; test: Growth regulatory activity on Brassica juncea stem assessed as inhibition of germination and seedling growth at 250 ppm after 10 days
[27] = system: Cucumis sativus; test: Growth regulatory activity on Cucumis sativus root assessed as inhibition of germination and seedling growth at 1000 ppm after 10 days

Measured: growth inhibition (GI)

C[C@@H]1C(=O)O[C@H]2[C@H]1CC[C@@]1(C)CC[C@@H](O)[C@@](C)(O)[C@H]21
active: [1] | [2] | [3] | [4] | [5] | [6] | [7] | [8]

C[C@@H]1C(=O)O[C@H]2[C@H]1CC[C@@]1(C)CC=C[C@@](C)(O)[C@H]21
active: [9] | [10] | [11] | [2] | [12] | [13] | [4] | [6] | [14] | [15] | [16]

C[C@@H]1C(=O)O[C@H]2[C@H]1CC[C@@]1(C)CCC[C@@](C)(O)[C@H]21
active: [10] | [11] | [2] | [17] | [18] | [12] | [13] | [5] | [14] | [15] | [19] | [8]

C=C1C(=O)O[C@@H]2[C@@H]3[C@](C)(CCC[C@@]3(C)O)CC[C@@H]12
not listed: [1] | [3] | [4] | [6] | [7] | [8] | [14] | [15] | [16] | [27]
active: all other assays above

CC1=CCC[C@]2(C)CC[C@@H]3[C@H](OC(=O)[C@H]3C)[C@@H]12
active: [3] | [27]
